This is an account of results in ChEMBL document CHEMBL1143445, “Highly cytotoxic and neurotoxic acetogenins of the Annonaceae: new putative biological targets of squamocin detected by activity-based protein profiling” (Bioorg Med Chem Lett, 2008).

A short description of series [1]: Drug uptake in mitochondria of human HeLa cells assessed as intracellular localization after 6 hrs. Type of series: ADME.
Series [2] deals with COP9 signalosome complex subunit 7b (Homo sapiens) (UniProt Q9H9Q2). Put plainly: Binding affinity to COP9 signalosome complex subunit 7b in human Jurkat cells at 10 uM after 24 hrs by 2D electrophoresis. It is filed as cell-based.
Chain of COP9 signalosome complex subunit 7b (Homo sapiens) (Q9H9Q2 whole entry, one chain of several): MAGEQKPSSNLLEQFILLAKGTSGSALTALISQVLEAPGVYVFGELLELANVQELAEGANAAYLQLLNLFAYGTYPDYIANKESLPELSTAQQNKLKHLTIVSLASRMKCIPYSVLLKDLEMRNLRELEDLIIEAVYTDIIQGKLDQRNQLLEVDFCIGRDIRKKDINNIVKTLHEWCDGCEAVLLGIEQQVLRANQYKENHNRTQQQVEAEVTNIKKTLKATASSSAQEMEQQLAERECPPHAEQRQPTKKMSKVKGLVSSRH
The target in series [3] is Succinate dehydrogenase [ubiquinone] flavoprotein subunit, mitochondrial (Homo sapiens) (UniProt P31040). Put plainly: Binding affinity to flavoprotein subunit of succinate dehydrogenase in human Jurkat cells at 10 uM after 24 hrs by 2D electrophoresis. Type of series: cell-based.
Chain of Succinate dehydrogenase [ubiquinone] flavoprotein subunit, mitochondrial (Homo sapiens) (P31040 whole entry): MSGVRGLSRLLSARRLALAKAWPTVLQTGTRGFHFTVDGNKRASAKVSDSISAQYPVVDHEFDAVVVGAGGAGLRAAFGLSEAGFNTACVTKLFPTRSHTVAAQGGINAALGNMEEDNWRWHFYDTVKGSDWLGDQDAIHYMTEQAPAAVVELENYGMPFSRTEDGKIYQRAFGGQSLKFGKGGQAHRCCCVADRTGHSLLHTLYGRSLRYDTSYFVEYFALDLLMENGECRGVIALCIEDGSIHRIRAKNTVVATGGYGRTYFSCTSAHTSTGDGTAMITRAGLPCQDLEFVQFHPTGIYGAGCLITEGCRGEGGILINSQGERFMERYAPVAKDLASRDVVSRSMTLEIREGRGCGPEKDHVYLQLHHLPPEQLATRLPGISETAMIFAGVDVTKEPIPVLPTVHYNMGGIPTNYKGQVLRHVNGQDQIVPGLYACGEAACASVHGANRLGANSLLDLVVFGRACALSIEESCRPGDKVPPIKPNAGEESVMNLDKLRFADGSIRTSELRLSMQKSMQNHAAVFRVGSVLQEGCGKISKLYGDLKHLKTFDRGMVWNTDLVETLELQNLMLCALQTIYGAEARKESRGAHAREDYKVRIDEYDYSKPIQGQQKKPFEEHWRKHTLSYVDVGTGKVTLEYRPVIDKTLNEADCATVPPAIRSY
Series [4] has as its target Protein disulfide-isomerase (Homo sapiens) (UniProt P07237). Put plainly: Binding affinity to disulfide isomerase in human Jurkat cells at 10 uM after 24 hrs by 2D electrophoresis. It is filed as cell-based.
Series [5] addresses T1, Glutathione S-transferase omega-1 (Homo sapiens) (UniProt P78417).
T1 sequence (whole entry): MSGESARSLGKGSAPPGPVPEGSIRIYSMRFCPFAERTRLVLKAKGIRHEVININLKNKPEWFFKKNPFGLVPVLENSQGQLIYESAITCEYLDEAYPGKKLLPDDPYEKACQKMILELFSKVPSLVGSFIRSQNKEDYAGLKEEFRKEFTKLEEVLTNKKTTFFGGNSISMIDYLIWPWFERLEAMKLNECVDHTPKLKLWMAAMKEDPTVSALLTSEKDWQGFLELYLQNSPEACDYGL
The series is described as follows: Binding affinity to glutathione transferase omega 1 in human Jurkat cells at 10 uM after 24 hrs by 2D electrophoresis. Type of series: cell-based.

Activity calls are given as the source filed them. The calls are words filed in the database; no cut-off is given here.

Chain of Protein disulfide-isomerase (Homo sapiens) (P07237 18-508 limits assumed): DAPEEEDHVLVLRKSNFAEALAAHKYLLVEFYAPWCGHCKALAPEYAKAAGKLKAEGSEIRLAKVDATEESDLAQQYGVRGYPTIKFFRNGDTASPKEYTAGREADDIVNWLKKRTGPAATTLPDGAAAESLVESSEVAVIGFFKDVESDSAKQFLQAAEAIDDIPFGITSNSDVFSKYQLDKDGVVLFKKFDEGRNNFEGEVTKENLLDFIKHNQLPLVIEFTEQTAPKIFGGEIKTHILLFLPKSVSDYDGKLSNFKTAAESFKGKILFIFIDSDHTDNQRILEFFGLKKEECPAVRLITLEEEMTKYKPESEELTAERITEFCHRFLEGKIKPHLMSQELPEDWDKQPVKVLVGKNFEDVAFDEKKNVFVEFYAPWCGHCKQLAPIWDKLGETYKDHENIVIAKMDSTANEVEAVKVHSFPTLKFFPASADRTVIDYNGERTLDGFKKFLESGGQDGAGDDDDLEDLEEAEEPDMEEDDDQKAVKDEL

With `CCCCCC[C@H](CCC[C@H](O)[C@H]1CC[C@@H]([C@H]2CC[C@@H]([C@H](O)CCCCCCCCCCCC3=C[C@H](C)OC3=O)O2)O1)n1cc(CCc2ccc3c(c2)Oc2cc(O)ccc2C32OC(=O)c3ccccc32)nn1` (stereo partly specified), the Activity in series [1] is recorded as 71%. Also, the outcome in series [2], in series [3], in series [4] and in series [5] was Active.
Turning to `CCCCCC[C@H](O)CCC[C@H](O)[C@H]1CC[C@@H]([C@H]2CC[C@@H]([C@H](O)CCCCCCCCCCCn3cc(COc4ccc5c(c4)Oc4cc(O)ccc4C54OC(=O)c5ccccc54)nn3)O2)O1` (stereo partly specified), in series [1], the Activity stood at 62%.
